From US12692244B2, “Griseofulvin 4 position etherified derivatives and their application” (Yan'an University, priority 2023, dated 2026)
In brackets after ≈: the same amount, converted by molar mass.

Tests used:
Assay in all cases: Antifungal activity assay, mycelial growth inhibitory rate method
Type in all cases: cell-based
Botrytis cinerea Pers. = conditions: for inhibition of growth at 100 µg/mL: 100 μg/mL in PDA medium, 28° C., 48-72 h, read-out: Average values of antifungal rate (%) B.c.; for IC50: mycelial growth, PDA medium, 100-0.0488 μg/mL
Description: (§1) The antifungal activities were evaluated against seven plant phytopathogenic fungi, by the mycelial growth inhibitory rate method, according to a reported method (Yu-Bin Bai, Meng Zhang, Ding Li, Yu Zhao, Liang-Zhu Huang, and Jin-Ming Gao. J. Agric. Food. Chem., 2023, 71, 16, 6236-6248). The target phytopathogenic fungi are Cytospora sp., Alternaria solani Sorauer, Alternaria alternate, Botrytis sp., Botrytis cinerea Pers., Colletotrichum gloeosporioides and Botryosphaeria dothidea. 100 μg/mL PDA mediums were prepared at 50° C. The petri dishes were incubated and cultivated at 28° C. for 48-72 h. Each sample was measured in triplicate, each colony diameter of all triplicates was measured 4 times by cross bracketing method. Hymexazol (Hym) as the positive control and the result of inhibition rate was calculated according to the formula: [formula] • where C represents the diameter of fungal growth on untreated PDA, and T represents the diameter of fungal growth on treated PDA. […] PDA mediums with different compound concentrations (100, 50, 25, 12.5, 6.25, 3.125, 1.5625, 0.78125, 0.3906, 0.1953, 0.0977, 0.0488 μg/mL) was prepared and their half inhibitory concentration (IC50) values were accurately tested. All half inhibitory concentration results are shown in Table 2 and Hymexazol (Hym) as the positive control.

[1] = tested on: Alternaria solani Sorauer; conditions: for inhibition of growth at 100 µg/mL: 100 μg/mL in PDA medium, 28° C., 48-72 h, read-out: Average values of antifungal rate (%) A.s.; for IC50: mycelial growth, PDA medium, 100-0.0488 μg/mL
Description: as §1

Alternaria alternate = conditions: for inhibition of growth at 100 µg/mL: 100 μg/mL in PDA medium, 28° C., 48-72 h; for IC50: mycelial growth, PDA medium, 100-0.0488 μg/mL
Description: as §1

Botrytis sp. = conditions: for inhibition of growth at 100 µg/mL: 100 μg/mL in PDA medium, 28° C., 48-72 h, read-out: Average values of antifungal rate (%) B.s.; for IC50: mycelial growth, PDA medium, 100-0.0488 μg/mL
Description: as §1

Cytospora sp. = conditions: for inhibition of growth at 100 µg/mL: 100 μg/mL in PDA medium, 28° C., 48-72 h, read-out: Average values of antifungal rate (%) C.s.; for IC50: mycelial growth, PDA medium, 100-0.0488 μg/mL
Description: as §1

Botryosphaeria dothidea = conditions: for inhibition of growth at 100 µg/mL: 100 μg/mL in PDA medium, 28° C., 48-72 h, read-out: Average values of antifungal rate (%) B.d.; for IC50: mycelial growth, PDA medium, 100-0.0488 μg/mL
Description: as §1

[2] = tested on: Colletotrichum gloeosporioides; conditions: for inhibition of growth at 100 µg/mL: 100 μg/mL in PDA medium, 28° C., 48-72 h, read-out: Average values of antifungal rate (%) C.g.; for IC50: mycelial growth, PDA medium, 100-0.0488 μg/mL
Description: as §1

IC50 (Botrytis cinerea Pers.) [µg/mL]	IC50 [1] [µg/mL]	IC50 (Alternaria alternate) [µg/mL]	IC50 (Botryosphaeria dothidea) [µg/mL]	IC50 [2] [µg/mL]	SMILES	inhibition of growth at 100 µg/mL (Botrytis cinerea Pers.) [%]	inhibition of growth at 100 µg/mL [1] [%]	inhibition of growth at 100 µg/mL (Alternaria alternate) [%]	inhibition of growth at 100 µg/mL (Botrytis sp.) [%]	IC50 (Botrytis sp.) [µg/mL]	inhibition of growth at 100 µg/mL (Cytospora sp.) [%]	IC50 (Cytospora sp.) [µg/mL]	inhibition of growth at 100 µg/mL (Botryosphaeria dothidea) [%]	inhibition of growth at 100 µg/mL [2] [%]
2.04 ± 0.12 (≈ 5.41 µM)	1.32 ± 0.01 (≈ 3.5 µM)	1.28 (≈ 3.4 µM)	1.35 ± 0.07 (≈ 3.58 µM)	0.06 ± 0.02 (≈ 0.159 µM)	C#CCOc1cc(OC)c(Cl)c2c1C(=O)[C@@]1(O2)C(OC)=CC(=O)C[C@H]1C [Compound 01, 4 Position Propargyl Griseofulvin Derivative]	98.6	100	97.4	100	2.84 ± 0.22 (≈ 7.54 µM)	96.6	1.84 ± 0.01 (≈ 4.88 µM)	98	91.3
> 50	14.9 ± 5.66 (≈ 39.3 µM)	> 100	> 50	4.05 ± 0.46 (≈ 10.7 µM)	C=CCOc1cc(OC)c(Cl)c2c1C(=O)[C@@]1(O2)C(OC)=CC(=O)C[C@H]1C [Compound 02, 4 Position Allyl Griseofulvin Derivative]	56.9	77	49.1	85.2	3.93 ± 0.8 (≈ 10.4 µM)	52.7	> 50	51.7	70.1
> 100	> 100	> 100	> 100	> 25	CCCCOc1cc(OC)c(Cl)c2c1C(=O)[C@@]1(O2)C(OC)=CC(=O)C[C@H]1C [Compound 03, 4 Position Butyl Griseofulvin Derivative]	19.1	26.9	7.41	62.3	> 25	29.1	> 100	31.8	68.4
> 100	17.85 ± 0.04 (≈ 45.4 µM)	> 25	> 100	> 100	COC1=CC(=O)C[C@@H](C)[C@]12Oc1c(Cl)c(OC)cc(OCC3CC3)c1C2=O [Compound 04, 4 Position Cyclopropylmethyl Griseofulvin Derivative]	50.7	70.5	41.4	69.8	> 100	65.5	> 50	26.2	48
> 25	83.2 ± 14.5 (≈ 217 µM)	> 50	> 25	16.1 ± 1.3 (≈ 42.2 µM)	COCOc1cc(OC)c(Cl)c2c1C(=O)[C@@]1(O2)C(OC)=CC(=O)C[C@H]1C [Compound 05, 4 Position Methoxymethyl Griseofulvin Derivative]	66	75.4	49.1	88.6	31.6 ± 7.3 (≈ 82.4 µM)	73.7	81.4 ± 1.23 (≈ 213 µM)	58.4	71.7

The remaining lines, values behind:

SMILES	IC50 (Botrytis cinerea Pers.) [µg/mL]	IC50 [1] [µg/mL]	IC50 (Alternaria alternate) [µg/mL]	IC50 (Botryosphaeria dothidea) [µg/mL]	IC50 [2] [µg/mL]	inhibition of growth at 100 µg/mL (Botrytis cinerea Pers.) [%]	inhibition of growth at 100 µg/mL [1] [%]	inhibition of growth at 100 µg/mL (Alternaria alternate) [%]	inhibition of growth at 100 µg/mL (Botrytis sp.) [%]	IC50 (Botrytis sp.) [µg/mL]	inhibition of growth at 100 µg/mL (Cytospora sp.) [%]	IC50 (Cytospora sp.) [µg/mL]	inhibition of growth at 100 µg/mL (Botryosphaeria dothidea) [%]	inhibition of growth at 100 µg/mL [2] [%]
COC1=CC(=O)C[C@@H](C)[C@]12Oc1c(Cl)c(OC)cc(OCc3ccccc3F)c1C2=O [Compound 06, 4 Position 2-Fluorobenzyl Griseofulvin Derivative]	> 50	> 100	> 100	> 100	1.92 ± 0.19 (≈ 4.3 µM)	55.6	13.1	3.45	69.8	> 25	6.08	> 100	18.1	75.6
COC1=CC(=O)C[C@@H](C)[C@]12Oc1c(Cl)c(OC)cc(OCc3ccsc3)c1C2=O [Compound 07, 4 Position 3-Methylthiophene Griseofulvin Derivative]	> 25	> 50	> 100	> 50	3.82 ± 0.09 (≈ 8.78 µM)	59.7	62.3	43.1	73.8	17.6 ± 0.27 (≈ 40.4 µM)	54.7	> 50	42.3	72.4
COC1=CC(=O)C[C@@H](C)[C@]12Oc1c(Cl)c(OC)cc(OCc3ccc(C(C)=O)cc3)c1C2=O [Compound 08, 4 Position 1-(4-(Methyl)Phenyl)-Ethanone Griseofulvin Derivative]	> 100	> 100	> 100	> 100	> 100	43.1	0	2.59	47.6	> 100	7.43	> 100	4.7	26
COC1=CC(=O)C[C@@H](C)[C@]12Oc1c(Cl)c(OC)cc(OC3CCCC3)c1C2=O [Compound 09, 4 Position Cyclopentyl Griseofulvin Derivative]	> 25	> 100	> 100	> 100	> 100	59.7	45.9	31	63.1	> 25	59.5	> 25	34.2	40.9
Cc1cc(O)no1 [Hym, Hymexazol, reference compound]	> 6.25	45.3 ± 14 (≈ 457 µM)	15.58 ± 0.13 (≈ 157 µM)	> 50	> 100	100	97.4	92.6	92.5	13.5 ± 1.89 (≈ 136 µM)	48	> 100	55.6	43.2
